Assay results taken from US12465588B2, “Indole carboxamide derivative and pharmaceutical composition containing same” (KUKJE PHARMA CO., LTD., priority 2019, dated 2025).

tested on: A549 human lung cancer cells; experiment: Measurement of PGE2 in IL-1β-treated A549 human lung cancer cells; type: cell-based; conditions: PGE2 production, A549 cell, IL-1β 1 ng/mL, 48 hours
Description: Samples at various concentrations were added at 24 hours after A549 human lung cancer cells were seeded. After 1 hour, IL-1β of 1 ng/mL was added. The cells were cultured for 48 hours and then the culture supernatant was collected. PGE2 of the collected supernatant was measured according to the manufacturer's instructions using a PGE2 EIA kit.

IC50 [nM] | Structure (SMILES)
277 | CC(C)C(=O)NCc1ccc(Cl)c(C(=O)Nc2ccc3c(c2)cc(C(=O)Nc2cccc(F)c2)n3C)c1 [Compound 1, 5-(2-chloro-5-(isobutyramidomethyl)benzamido)-N-(3-fluorophenyl)-1-methyl-1H-indole-2-carboxamide]
237 | CC(C)C(=O)NCc1ccc(Cl)c(C(=O)Nc2ccc3c(c2)cc(C(=O)Nc2ccc(F)cc2)n3C)c1 [Compound 2, 5-(2-chloro-5-(isobutyramidomethyl)benzamido)-N-(4-fluorophenyl)-1-methyl-1H-indole-2-carboxamide]
209 | CC(C)C(=O)NCc1ccc(Cl)c(C(=O)Nc2ccc3c(c2)cc(C(=O)Nc2cccc(Cl)c2)n3C)c1 [Compound 3, 5-(2-chloro-5-(isobutyramidomethyl)benzamido)-N-(3-chlorophenyl)-1-methyl-1H-indole-2-carboxamide]
5.22 | CC(C)C(=O)NCc1ccc(Cl)c(C(=O)Nc2ccc3c(c2)cc(C(=O)Nc2ccc(C(F)(F)F)cc2)n3C)c1 [Compound 8, 5-(2-chloro-5-(isobutyramidomethyl)benzamido)-1-methyl-N-(4-(trifluoromethyl)phenyl)-1H-indole-2-carboxamide]
26.4 | CC(C)C(=O)NCc1ccc(Cl)c(C(=O)Nc2ccc3c(c2)cc(C(=O)Nc2ccc(Br)cc2)n3C)c1 [Compound 13, N-(4-bromophenyl)-5-(2-chloro-5-(isobutyramidomethyl)benzamido)-1-methyl-1H-indole-2-carboxamide]
7.19 | CC(C)C(=O)NCc1ccc(Cl)c(C(=O)Nc2ccc3c(c2)cc(C(=O)Nc2cccc(-c4ccc(C(F)(F)F)cc4)c2)n3C)c1 [Compound 16, 5-(2-chloro-5-(isobutyramidomethyl)benzamido)-1-methyl-N-(4′-(trifluoromethyl)-[1,1′-biphenyl]-3-yl)-1H-indole-2-carboxamide]
88.1 | CC(C)C(=O)NCc1ccc(Cl)c(C(=O)Nc2ccc3c(c2)cc(C(=O)Nc2cc(F)cc(C(F)(F)F)c2)n3C)c1 [Compound 17, 5-(2-chloro-5-(isobutyramidomethyl)benzamido)-N-(3-fluoro-5-(trifluoromethyl)phenyl)-1-methyl-1H-indole-2-carboxamide]
60 | CC(C)C(=O)NCc1ccc(Cl)c(C(=O)Nc2ccc3c(c2)cc(C(=O)Nc2ccc(C(F)(F)F)nc2)n3C)c1 [Compound 18, 5-(2-chloro-5-(isobutyramidomethyl)benzamido)-1-methyl-N-(6-(trifluoromethyl)pyridin-3-yl)-1H-indole-2-carboxamide]
> 100 | CC(C)C(=O)NCc1ccc(Cl)c(C(=O)Nc2ccc3c(c2)cc(C(=O)Nc2cc(-c4ccc(C(F)(F)F)cc4)n[nH]2)n3C)c1 [Compound 19, 5-(2-chloro-5-(isobutyramidomethyl)benzamido)-1-methyl-N-(3-(4-(trifluoromethyl)phenyl)-1H-pyrazole-5-yl)-1H-indole-2-carboxamide]
6.87 | Cc1c(-c2ccc(C(F)(F)F)cc2)n[nH]c1NC(=O)c1cc2cc(NC(=O)c3cc(CNC(=O)C(C)C)ccc3Cl)ccc2n1C [Compound 20, 5-(2-chloro-5-(isobutyramidomethyl)benzamido)-1-methyl-N-(4-methyl-3-(4-(trifluoromethyl)phenyl)-1H-pyrazol-5-yl)-1H-indole-2-carboxamide]
> 100 | CC(C)C(=O)NCc1ccc(Cl)c(C(=O)Nc2ccc3c(c2)cc(C(=O)N2CCN(c4ncccn4)CC2)n3C)c1 [Compound 21, 2-chloro-5-(isobutyramidomethyl)-N-(1-methyl-2-(4-(pyrimidin-2-yl)piperazin-1-carbonyl)-1H-indole-5-yl)benzamide]
27.4 | Cc1cc(Cl)ccc1NC(=O)c1cc2cc(NC(=O)c3cc(CNC(=O)C(C)C)ccc3Cl)ccc2n1C [Compound 22, N-(4-chloro-2-methylphenyl)-5-(2-chloro-5-(isobutyramidomethyl)benzamido)-1-methyl-1H-indole-2-carboxamide]
45 | Cc1cc(F)ccc1NC(=O)c1cc2cc(NC(=O)c3cc(CNC(=O)C(C)C)ccc3Cl)ccc2n1C [Compound 23, 5-(2-chloro-5-(isobutyramidomethyl)benzamido)-N-(4-fluoro-2-methylphenyl)-1-methyl-1H-indole-2-carboxamide]
9.22 | CC(C)C(=O)NCc1ccc(Cl)c(C(=O)Nc2ccc3c(c2)cc(C(=O)N[C@@H](C)c2ccc4ccccc4c2)n3C)c1 [Compound 31, (S)-5-(2-chloro-5-(isobutyramidomethyl)benzamido)-1-methyl-N-(1-(naphthalen-2-yl)ethyl)-1H-indole-2-carboxamide]
9.62 | CC(C)C(=O)NCc1ccc(Cl)c(C(=O)Nc2ccc3c(c2)cc(C(=O)NCc2ccc(F)cc2)n3C)c1 [Compound 32, 5-(2-chloro-5-(isobutyramidomethyl)benzamido)-N-(4-fluorobenzyl)-1-methyl-1H-indole-2-carboxamide]
9.59 | CC(C)C(=O)NCc1ccc(Cl)c(C(=O)Nc2ccc3c(c2)cc(C(=O)NCc2ccc(C(C)(C)C)cc2)n3C)c1 [Compound 33, N-(4-(tert-butyl)benzyl)-5-(2-chloro-5-(isobutyramidomethyl)benzamido)-1-methyl-1H-indole-2-carboxamide]
7.9 | CC(C)C(=O)NCc1ccc(Cl)c(C(=O)Nc2ccc3c(c2)cc(C(=O)NCc2ccc(C(F)(F)F)cc2)n3C)c1 [Compound 34, 5-(2-chloro-5-(isobutyramidomethyl)benzamido)-1-methyl-N-(4-(trifluoromethyl)benzyl)-1H-indole-2-carboxamide]
10.4 | CC(C)C(=O)NCc1ccc(Cl)c(C(=O)Nc2ccc3c(c2)cc(C(=O)NCc2ccccc2C(F)(F)F)n3C)c1 [Compound 35, 5-(2-chloro-5-(isobutyramidomethyl)benzamido)-1-methyl-N-(2-(trifluoromethyl)benzyl)-1H-indole-2-carboxamide]
5.82 | CC(C)C(=O)NCc1ccc(Cl)c(C(=O)Nc2ccc3c(c2)cc(C(=O)NC(C)c2ccc(C(F)(F)F)cc2)n3C)c1 (stereo not drawn) [Compound 47, 5-(2-chloro-5-(isobutyramidomethyl)benzamido)-1-methyl-N-(1-(4-(trifluoromethyl)phenyl)ethyl)-1H-indole-2-carboxamide]
9.75 | CC(C)C(=O)NCc1ccc(Cl)c(C(=O)Nc2ccc3c(c2)cc(C(=O)NCc2ccc(Cl)cc2)n3C)c1 [Compound 49, 5-(2-chloro-5-(isobutyramidomethyl)benzamido)-N-(4-chlorobenzyl)-1-methyl-1H-indole-2-carboxamide]
59.2 | CC(C)C(=O)NCc1ccc(Cl)c(C(=O)Nc2ccc3c(c2)cc(C(=O)NCc2ccc(F)c(Cl)c2)n3C)c1 [Compound 56, N-(3-chloro-4-fluorobenzyl)-5-(2-chloro-5-(isobutyramidomethyl)benzamido)-1-methyl-1H-indole-2-carboxamide]
5.54 | CC(C)C(=O)NCc1ccc(Cl)c(C(=O)Nc2ccc3c(c2)cc(C(=O)N[C@H](C)c2ccc(C(F)(F)F)cc2)n3C)c1 [Compound 58, (R)-5-(2-chloro-5-(isobutyramidomethyl)benzamido)-1-methyl-N-(1-(4-(trifluoromethyl)phenyl)ethyl)-1H-indole-2-carboxamide]
9.5 | CC(C)C(=O)NCc1ccc(Cl)c(C(=O)Nc2ccc3c(c2)cc(C(=O)N[C@H](C)c2ccc(OC(F)(F)F)cc2)n3C)c1 [Compound 59, (R)-5-(2-chloro-5-(isobutyramidomethyl)benzamido)-1-methyl-N-(1-(4-(trifluoromethoxy)phenyl)ethyl)-1H-indole-2-carboxamide]
30.3 | CC(C)C(=O)NCc1ccc(Cl)c(C(=O)Nc2ccc3c(c2)cc(C(=O)N[C@@H](C)c2ccc(C(F)(F)F)cc2)n3C)c1 [Compound 60, (S)-5-(2-chloro-5-(isobutyramidomethyl)benzamido)-1-methyl-N-(1-(4-(trifluoromethyl)phenyl)ethyl)-1H-indole-2-carboxamide]
51.6 | CC(C)C(=O)NCc1ccc(Cl)c(C(=O)Nc2ccc3c(c2)cc(C(=O)N[C@@H](C)c2ccc(OC(F)(F)F)cc2)n3C)c1 [Compound 61, (S)-5-(2-chloro-5-(isobutyramidomethyl)benzamido)-1-methyl-N-(1-(4-(trifluoromethoxy)phenyl)ethyl)-1H-indole-2-carboxamide]
27.5 | CC(C)C(=O)NCc1ccc(Cl)c(C(=O)Nc2ccc3c(c2)cc(C(=O)NCc2ccc(C(C)(C)C)cc2)n3CC(F)(F)F)c1 [Compound 62, N-(4-(tert-butyl)benzyl)-5-(2-chloro-5-(isobutyramidomethyl)benzamido)-1-(2,2,2-trifluoroethyl)-1H-indole-2-carboxamide]
14.8 | CC(C)C(=O)NCc1ccc(Cl)c(C(=O)Nc2ccc3c(c2)cc(C(=O)NCc2ccccc2C(F)(F)F)n3CC(F)(F)F)c1 [Compound 63, 5-(2-chloro-5-(isobutyramidomethyl)benzamido)-1-(2,2,2-trifluoroethyl)-N-(2-(trifluoromethyl)benzyl)-1H-indole-2-carboxamide]
9.38 | CC(C)C(=O)NCc1ccc(Cl)c(C(=O)Nc2ccc3c(c2)cc(C(=O)NCc2ccc(C(F)(F)F)cc2)n3CC(F)(F)F)c1 [Compound 64, 5-(2-chloro-5-(isobutyramidomethyl)benzamido)-1-(2,2,2-trifluoroethyl)-N-(4-(trifluoromethyl)benzyl)-1H-indole-2-carboxamide]
2.71 | CC(C)C(=O)NCc1ccc(Cl)c(C(=O)Nc2ccc3c(c2)cc(C(=O)N[C@@H](C)c2ccc4ccccc4c2)n3CC(F)(F)F)c1 [Compound 65, (S)-5-(2-chloro-5-(isobutyramidomethyl)benzamido)-N-(1-(naphthalen-2-yl)ethyl)-1-(2,2,2-trifluoroethyl)-1H-indole-2-carboxamide]
43.3 | CC(C)C(=O)NCc1ccc(Cl)c(C(=O)Nc2ccc3c(c2)cc(C(=O)N[C@@H](C)c2ccc([N+](=O)[O-])cc2)n3CC(F)(F)F)c1 [Compound 66, (S)-5-(2-chloro-5-(isobutyramidomethyl)benzamido)-N-(1-(4-nitrophenyl)ethyl)-1-(2,2,2-trifluoroethyl)-1H-indole-2-carboxamide]
